Where “and” joins values, the source holds several entries; their conditions need not be identical. Equal entries are not always repeated.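 Each compound was tested at five concentrations against cells in 96-well plates for 48 hours. GI50 is the concentration that inhibits growth by half. TGI is the concentration that stops growth completely.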 Starred links: 1 amine or outer side, 2 acyl side, 3 side chain; linkers in the order of their positions; H or OH if unused. Non-standard residues stand in square brackets, D forms with d. Residues, ends and D or L forms follow the SMILES beside them. *: point of attachment. X14 = C/C=C/CC(C)C(O)[C@H](N[*:1])C(=O)[*:2]; Decanoyl = CCCCCCCCCC(=O)*; Leu(ol) = CC(C)C[C@H](N)CO; Iva = CC[C@](C)(N)C(=O)O; Aib = CC(C)(N)C(=O)O
Test system: MDA-MB-468 breast
Assay: DTP human tumour cell line panel, 48 h

Row | Structure (SMILES) | GI50 | TGI [nM]
1 | CCCCN(CC)CCCCCCCCCCN1CCCc2cc(OC)ccc21 | 1590 nM | 3580
2 | O=C(Nc1ccc(I)cc1)c1cccc([N+](=O)[O-])c1O | 2070 nM | 7400
3 | NC(=O)CCc1ccccc1Oc1nccc(-c2c(-c3ccc(F)cc3)ncn2C2CCNCC2)n1 | 10000 nM | > 25000
4 | O=C1c2cccnc2C(=O)c2c1c(C(=O)OCCc1ccccn1)c1ccccn21 | 1840 nM | 5060
5 | CCCCCCc1cc2cc(-c3csc(/C=C/c4ccccc4)n3)c(=O)oc2cc1O | 6100 nM | 28700
6 | Brc1ccc(Nc2nc3ccccc3nc2Nc2ccc(Br)cc2)cc1 | 365 nM | 2580
7 | C/C=C/CC(C)C(O)[C@H](NC(=O)[C@@H]1CCCN1C(=O)C(C)(C)NC(=O)CCCCCCCCC)C(=O)N[C@@](C)(CC)C(=O)N[C@@H](CCC(N)=O)C(=O)N[C@H](CCC(N)=O)C(=O)NC(C)(C)C(=O)N[C@@](C)(CC)C(=O)N[C@@H](CCC(N)=O)C(=O)N[C@H](CC(C)C)C(=O)N[C@H](CO)CC(C)C (stereo partly drawn) (Decanoyl-[Aib]P[X14][Iva]Q[dQ][Aib][Iva]Q[dL][Leu(ol)]) | 32.9 nM | 260
8 | FC(F)(F)c1ccc(-c2ncc(-c3ccc(C(F)(F)F)cc3)c(NCc3cc(C(F)(F)F)cc(C(F)(F)F)c3)n2)cc1 | 3200 nM | 15500
9 | CN(CSc1ccc(Cl)cc1)c1ccc(CSc2ccc(Cl)cc2)cc1 | 1850 nM | 5070
10 | COc1cc(/C=C/C(=O)c2c(C)nc3ccccc3c2C)ccc1OCCCCOc1cc2c(cc1OC)C(=O)N1CCC[C@H]1C=N2 | 235 nM | 625
11 | COC(=O)[C@@H](C)C[C@H](Cc1ccccc1)NC(=O)c1csc([C@@H](C[C@H](C(C)C)N(C)C(=O)C2(NC(=O)[C@H]3CCCCN3C)CCC2)OC(C)=O)n1 | 1.23 nM and 2.5 nM | > 25000
12 | CCN1C(=O)N(CC)C2C1NC(=S)N2/N=C/C=C/c1ccccc1OC (centres undefined) | 35.3 nM | 38900
13 | CCC(C)(C)[C@H](NC(=O)[C@H]1CCCCN1C)C(=O)N(C)[C@H](C[C@@H](OC(C)=O)c1nc(C(=O)N[C@@H](Cc2ccccc2)C[C@H](C)C(=O)O)cs1)C(C)C | < 1.67 nM | < 1.67
14 | O=Cc1ccc(-c2ccc(-c3ccc(C=O)o3)[se]2)o1 | 22600 nM | > 100000
15 | Cc1[nH]c(C(=O)Nc2ccc(S(=O)(=O)N3CCCCC3)cc2OCCOCCOCCOCCOCCOCCOCCOCCOCCOc2cc(S(=O)(=O)N3CCCCC3)ccc2NC(=O)c2[nH]c(C)c3c2CCCCC3=O)c2c1C(=O)CCCC2 | 191 nM | 794
16 | CCOC(=O)[C@@H](C)C[C@H](Cc1ccccc1)NC(=O)c1csc([C@@H](C[C@H](C(C)C)N(C)C(=O)[C@@H](NC(=O)[C@H]2C[C@H](O)CCN2C)C(C)C)OC(C)=O)n1 | < 1.67 nM | > 16700
17 | COc1ncc(-c2ccc3nccc(C#CCN4CCN(S(C)(=O)=O)CC4)c3c2)cc1NS(=O)(=O)c1ccc(F)cc1F | 19.8 nM | 122
18 | COc1cc2c(cc1OCCCCn1c(-c3cccs3)nc3ccccc31)N=C[C@@H]1CCCN1C2=O | 333 nM | 1600
19 | c1ccc(-c2cn(-c3ccccc3)c(-c3ccccc3)n2)cc1 | 10100 nM | 30500

Row | Structure (SMILES) | GI50 | TGI [nM]
20 | NCCCNc1nc2ccc(Cl)cc2c2c(=O)c3cc(F)ccc3sc12 | 2900 nM | 10100
21 | NC(=N\N=C/c1ccc(Cl)cc1Cl)/C(N)=N\N=C/c1ccc(Cl)cc1Cl | 6870 nM | > 100000
22 | COc1ccc(C2CC(c3ccc4ccccc4c3)=NN2c2nc(O)c(C3=c4cc(OC)ccc4=NC3=O)s2)cc1 (centres undefined) | 46.2 nM | 200
23 | CC(C)OCc1cc(CN2CCN(c3cccc(Cl)c3)CC2)c(O)c2ncccc12 | 346 nM | 1670
24 | O=C(O)c1ccc(C(=O)O)c(C(=O)O)c1.[NH-]C1CCCCC1[NH-].[Pt+2] | 35700 nM | > 100000
25 | Oc1ccc(Cc2ccc(O)c(C3CC(c4ccc(Cl)cc4)=NN3)c2)cc1C1CC(c2ccc(Cl)cc2)=NN1 (centres undefined) | 2850 nM | 9440
26 | CCC(C)CC(C)C(=O)c1c(O)ccn(O)c1=O (centres undefined) | 2100 nM | 9470
27 | N#C/C(=C\c1ccc(F)cc1)n1nc2cccc(F)c2n1 | 3050 nM | > 100000
28 | O=C1/C(=C\c2ccccc2)CN(C(=O)c2ccccc2)C/C1=C\c1ccccc1 | 1690 nM | 3560
29 | O=C(NS(=O)(=O)c1ccc(NC[C@H]2COCCO2)c([N+](=O)[O-])c1)c1ccc(N2CCN(CC3=C(c4ccc(Cl)cc4)CC4(CCC4)CC3)CC2)cc1Oc1cnc2[nH]ccc2c1 | 1790 nM | 4350
30 | O=C1NC(=O)C(c2ccccc2)=C1Nc1ccccc1 | > 25000 nM | > 25000
31 | O=C(Cc1ccc(Nc2ccnc(C(F)(F)F)c2)cc1)N/N=C/c1ccccc1O | 3000 nM | 39300
32 | O=c1[nH]c(F)nc2c1ncn2C1OC(CO)C(O)C1O (centres undefined) | > 100000 nM | > 100000
33 | FC(F)(F)c1cc(-c2ncn(/C=C\c3nnco3)n2)cc(C(F)(F)F)c1 | 85.4 nM | 740
34 | CN1CCN(c2ccc(Nc3nc(NCCNS(=O)(=O)c4ccc5ccccc5c4)c4sccc4n3)cc2)CC1 | 2830 nM | 12200
35 | Cc1cc(C(O)(c2ccc(Nc3ccccc3)cc2)c2ccc(Nc3ccc(S(=O)(=O)O)cc3)cc2)ccc1N (centres undefined) | 480 nM | 2480
36 | O=C(/C=C/c1cccc(S(=O)(=O)Nc2ccccc2)c1)NO | 241 nM | 5360
37 | CCCOc1ccc(/C=N/Nc2cc(C)nc3ccc(Cl)cc23)cc1 | 1690 nM | 3190
